Experiments:
[1] = system: Human gingival fibroblasts; test: Biocompatibility (cytotoxicity) test, Calcein-AM cell survival; type: cell-based; details: 24 h exposure, FIG. 1
Description: Synthesized monomers (Formulas 4-6, 10, and 11) and methacryloyloxyundecyldi-methylbenzylammonium bromide (Formula 1) were tested for biocompatibility (cytotoxicity). Human gingival fibroblasts were obtained from extracted molars from patients with healthy gingival following informed consent as prescribed in an approved IRB protocol. Gingival fibroblasts were maintained in MEM containing 10% fetal calf serum (FCS) and 200 units/mL penicillin and 200 μg/mL streptomycin. Cells were grown in 48-well plates for 24 h prior to exposure to the monomers. The growth media containing 0.1% dimethylsulfoxide (DMSO) were supplemented with 10^−4 M, 10^−5 M, 10^−6 M and 10^−7 M concentrations of five newly synthesized exemplary monomers (Formulas 4-6, 10, and 11) and added to the cells for 24 h. MEM served as a control for cytotoxicity. Cell survival was visualized using a fluorescent esterase substrate (Calcein-AM) and a inverted fluorescent microscope. Cell survival was quantified using a fluorescent multi-well plate reader.

[2] = system: Streptococcus mutans, Lactobacillus casei, Staphylococcus aureus and Pseudomonas aeruginosa; test: Antimicrobial activity, automated growth curve analysis; type: cell-based; details: 10^−4 M-10^−7 M in BMGS medium, triplicate, FIG. 2
Description: Evaluation of antimicrobial activities of Formula 1 and synthesized monomers (Formulas 4-6, 10, and 11) was also performed. Streptococcus mutans was grown in brain heart infusion (BHI, Difco Laboratories, Detroit, Mich.), Lactobacillus casei was grown in MRS medium (Difco), Staphylococcus aureus and Pseudomonas aeruginosa were grown in Trypticase Soy Broth (TSB; Difco). They all were grown under static conditions in an 37° C. aerobic chamber with (for S. mutans only) or without 5% CO2. For antimicrobial assay, these bacteria were cultivated using a modified semi-defined biofilm medium (BM) with glucose (18 mM) and sucrose (2 mM) (BMGS) as the supplemental carbohydrate sources. Antimicrobial efficacy was measured using an automated growth curve analysis system. Overnight cultures were transferred to fresh medium and allowed to grow to mid-exponential phase, when they were properly diluted in BMGS and allowed to grow in the automated growth curve analysis system with and without inclusion of Formula 1 and synthesized monomers (Formulas 4-6, 10, and 11). All antimicrobial monomers were dissolved in DMSO at 10^−2 M concentration and serial dilutions were made to achieve the desired concentrations (10^−4 M-10^−7 M). All experiments were run in triplicate.

[3] = concentrations of 10^−5 M and below

## C=C(C)C(=O)OCC(COC(=O)C(=C)C)OC(=O)CCCCCCCCC[N+]12CCN(CC1)CC2.[Br-] [Formula 4, 2-(1,3-dimethacryloyloxy)propyl 10-(1-(1-azonia-4-azabicylco[2.2.2]octyl))decanoate bromide]
[1]; 10^−4 M concentration
  cytotoxicity (cell survival): little cytotoxicity

## C=C(C)C(=O)OCC(COC(=O)C(=C)C)OC(=O)CCCCCCCCCCCCCCC[N+]12CCN(CC1)CC2.[Br-] [Formula 5, 2-(1,3-dimethacryloyloxy)propyl 16-(1-(1-azonia-4-azabicylco[2.2.2]octyl))hexadecanoate bromide]
[1]; 10^−4 M concentration
  cytotoxicity (cell survival): significant cell death
[1]; [3]
  cytotoxicity (cell survival): good biocompatibility
[2]
  antibacterial activity: Highest levels of antibacterial activity

## C=C(C)C(=O)OCC(COC(=O)C(=C)C)OC(=O)CCCCCCCCCCCCCCC[N+](C)(C)Cc1ccccc1 [Formula 6, 2-(1,3-dimethacryloyloxy)propyl 16-N,N-dimethylbenzylammoniumhexadecanoate bromide]
[1]; 10^−4 M concentration
  cytotoxicity (cell survival): significant cell death
[1]; [3]
  cytotoxicity (cell survival): good biocompatibility
[2]
  antibacterial activity: Highest levels of antibacterial activity

## C=C(C)C(=O)OCCCCCCCCCCCCCCCC[N+]12CCN(CC1)CC2.[Br-] [Formula 11, 16-(1-azonia-4-azabicylco[2.2.2]octyl)hexadecylmethacrylate bromide]
[1]; 10^−4 M concentration
  cytotoxicity (cell survival): little cytotoxicity
